Measurements: ChEMBL document CHEMBL1135947, “Structure-based design and synthesis of HIV-1 protease inhibitors employing beta-D-mannopyranoside scaffolds” (Bioorg Med Chem Lett, 2002)

Biological target: T1, Human immunodeficiency virus type 1 protease (Human immunodeficiency virus 1, UniProt Q72874)
Assay: Compound was tested for inhibitory activity against HIV-1 protease; call rule not given here

Row | Structure (SMILES) | IC50
1 | CC(=O)NCC1O[C@@H](Oc2ccccc2)C(O)C(O)[C@@H]1O (single isomer, unassigned) | 8.95 µM
2 | CO[C@@H]1OC2COC(c3ccccc3)O[C@H]2C(OCc2ccccc2)[C@H]1O (stereo partly specified) | 4.85 µM
3 | COc1ccc(O[C@@H]2C(CNC(C)=O)O[C@@H](OC)[C@H](O)C2OCc2ccccc2)cc1 (stereo partly specified) | 7.74 µM
4 | CO[C@@H]1OC(CNC(=O)OCc2ccccc2)[C@@H](O)C(OCc2ccccc2)[C@H]1O (stereo partly specified) | 4.66 µM
5 | COc1ccc(O[C@@H]2C(CNC(=O)OCc3ccccc3)O[C@@H](OC)[C@H](O)C2OCc2ccccc2)cc1 (stereo partly specified) | 4.48 µM

Biological target: T1, Human immunodeficiency virus type 1 protease
Assay: Compound was tested for inhibitory activity against HIV-1 protease; Not active

Row | Structure (SMILES) | IC50
6 | CO[C@@H]1OC(CNC(=O)C(C)(C)C)[C@@H](O)C(O)[C@@H]1O (stereo partly specified) | Not Active
